Results: US20230265151A1, “GIP/GLP1 CO-AGONIST COMPOUNDS” (priority 2020, published 2023)
Where two headings read alike, the source gives them in different places.

Experiments:
[1] = target: T1, hGIPR (Homo sapiens, UniProt P48546); experiment: Functional cAMP formation (HTRF) in HEK-293 clonal cells expressing hGIPR, 0.1% bovine casein, without or with 1.0% human serum albumin; type: cell-based; conditions: for EC50: geometric mean
T1 construct: expressed in transfected cells
T1 sequence (P48546 22-466): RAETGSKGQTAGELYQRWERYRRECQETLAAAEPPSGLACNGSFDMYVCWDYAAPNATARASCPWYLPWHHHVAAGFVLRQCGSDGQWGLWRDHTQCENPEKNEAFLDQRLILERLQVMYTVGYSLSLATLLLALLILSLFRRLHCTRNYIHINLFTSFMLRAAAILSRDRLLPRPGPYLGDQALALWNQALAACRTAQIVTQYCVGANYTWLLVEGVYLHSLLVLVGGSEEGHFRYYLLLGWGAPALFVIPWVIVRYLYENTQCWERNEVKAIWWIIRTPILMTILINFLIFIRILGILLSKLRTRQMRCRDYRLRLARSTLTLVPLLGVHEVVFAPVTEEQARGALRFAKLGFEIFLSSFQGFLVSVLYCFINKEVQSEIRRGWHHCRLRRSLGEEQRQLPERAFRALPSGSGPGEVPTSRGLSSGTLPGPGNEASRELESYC
Summary of the method: (§1)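 Readings of the HTRF 665/620 nm ratio, which falls as cAMP rises, were converted to nM cAMP using a standard curve after 30 min peptide exposure at 37° C.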

[2] = target: T2, hGCGR (Homo sapiens, UniProt P47871); experiment: Functional cAMP formation (HTRF) in HEK-293 clonal cells expressing hGCGR, 0.1% bovine casein, without or with 1.0% human serum albumin; type: cell-based; conditions: geometric mean
T2 construct: expressed in transfected cells
T2 sequence (P47871 26-477): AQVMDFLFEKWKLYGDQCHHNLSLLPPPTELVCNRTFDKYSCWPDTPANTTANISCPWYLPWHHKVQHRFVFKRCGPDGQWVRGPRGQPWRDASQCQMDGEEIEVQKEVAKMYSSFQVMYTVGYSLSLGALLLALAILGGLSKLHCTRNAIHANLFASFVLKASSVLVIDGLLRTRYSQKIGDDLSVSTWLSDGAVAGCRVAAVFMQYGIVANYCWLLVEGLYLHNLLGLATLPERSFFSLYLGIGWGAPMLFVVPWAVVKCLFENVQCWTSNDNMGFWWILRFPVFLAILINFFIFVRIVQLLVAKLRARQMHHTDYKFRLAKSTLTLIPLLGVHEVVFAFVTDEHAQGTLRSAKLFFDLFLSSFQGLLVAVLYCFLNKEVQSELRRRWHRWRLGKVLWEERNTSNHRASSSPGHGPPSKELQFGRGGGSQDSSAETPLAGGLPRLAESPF
Summary of the method: as §1

[3] = target: T3, human GIP receptor (hGIPR) (Homo sapiens, UniProt P48546); experiment: [125I]-GIP binding, SPA with membranes of CHO cells expressing hGIPR
T3 construct: expressed in transfected cells; crude membranes
T3 sequence (P48546 22-466): T1 sequence (P48546 22-466)

[4] = target: T4, human GLP-1 receptor (hGLP-1R) (Homo sapiens, UniProt P43220); experiment: [125I]-GLP-1 binding, SPA with membranes of HEK293 cells expressing hGLP-1R
T4 construct: expressed in transfected cells; crude membranes

[5] = target: hGLP-1R (Homo sapiens, UniProt P43220); experiment: Functional cAMP formation (HTRF) in HEK-293 clonal cells expressing hGLP-1R, 0.1% bovine casein, without or with 1.0% human serum albumin; type: cell-based; parameters: expressed in transfected cells; conditions: geometric mean
hGLP-1R, sequence (P43220 24-463): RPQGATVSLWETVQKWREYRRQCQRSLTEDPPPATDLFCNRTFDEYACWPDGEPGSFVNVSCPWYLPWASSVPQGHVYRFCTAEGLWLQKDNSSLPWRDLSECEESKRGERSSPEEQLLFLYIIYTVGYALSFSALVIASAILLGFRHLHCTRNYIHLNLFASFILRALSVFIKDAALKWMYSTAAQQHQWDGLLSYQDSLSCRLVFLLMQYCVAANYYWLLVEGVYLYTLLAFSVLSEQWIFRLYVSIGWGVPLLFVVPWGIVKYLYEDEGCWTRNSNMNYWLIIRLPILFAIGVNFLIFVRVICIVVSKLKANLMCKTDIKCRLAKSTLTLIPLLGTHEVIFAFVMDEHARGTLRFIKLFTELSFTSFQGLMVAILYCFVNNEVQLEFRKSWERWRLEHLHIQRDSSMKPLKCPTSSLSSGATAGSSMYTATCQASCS
Summary of the method: as §1

[6] = 0.1% bovine casein and 1.0% human serum albumin, 37° C., read-out: hGIPR EC50, nM (SEM, n)
[7] = HEK293, 0.1% bovine casein and 1.0% human serum albumin, 37° C., percent of maximal response to GIP(1-42)NH2, read-out: hGIPR Emax, % ± SEM
[8] = 0.1% bovine casein and 1.0% human serum albumin, 37° C., read-out: hGCGR EC50, nM (SEM, n)
[9] = cAMP, incubated at 37° C., 0.1% bovine casein (no human serum albumin), read-out: hGCGR EC50, nM (SEM, n)
[10] = human GIPR, geometric mean (SEM, n), read-out: Binding Affinity Ki, nM (SEM, n) hGIPR
[11] = human GLP-1R, geometric mean (SEM, n), read-out: Binding Affinity Ki, nM (SEM, n) hGLP-1R
[12] = 0.1% bovine casein and 1.0% human serum albumin, 37° C., read-out: hGLP-1R EC50, nM (SEM, n)
[13] = cAMP, incubated at 37° C., 0.1% bovine casein (no human serum albumin), read-out: hGLP-1R EC50, nM (SEM, n)

## CC[C@H](C)[C@H](NC(=O)[C@H](CC(C)C)NC(=O)[C@](C)(Cc1ccc(O)cc1)NC(=O)[C@@H](CCC(=O)O)NC(=O)[C@@H](NC(=O)[C@H](Cc1ccccc1)NC(=O)[C@H](CCC(=O)O)NC(=O)C(C)(C)NC(=O)[C@H](CCC(N)=O)NC(=O)[C@H](C)NC(=O)[C@H](CCCCNC(=O)COCCOCCNC(=O)COCCOCCNC(=O)CC[C@H](NC(=O)CCCc1ccc(I)cc1)C(=O)O)NC(=O)[C@H](CCCN)NC(=O)[C@H](CC(=O)O)NC(=O)[C@H](CC(C)C)NC(=O)[C@](C)(CC(C)C)NC(=O)[C@@H](NC(=O)[C@H](CO)NC(=O)[C@H](Cc1ccncc1)NC(=O)[C@H](CC(=O)O)NC(=O)[C@H](CO)NC(=O)[C@@H](NC(=O)[C@](C)(Cc1ccccc1F)NC(=O)[C@@H](NC(=O)CNC(=O)[C@H](CCC(=O)O)NC(=O)C(C)(C)NC(=O)[C@@H](N)Cc1ccc(O)cc1)[C@@H](C)O)[C@@H](C)O)[C@@H](C)CC)[C@@H](C)CC)C(=O)N[C@@H](CCC(=O)O)C(=O)NCC(=O)NCC(=O)N[C@@H](CCCCNC(=O)COCCOCCNC(=O)COCCOCCNC(=O)CC[C@H](NC(=O)CCCc1ccc(I)cc1)C(=O)O)C(=O)N[C@@H](CO)C(=O)N[C@@H](CO)C(=O)NCC(=O)N[C@@H](C)C(=O)N1CCC[C@H]1C(=O)N1CCC[C@H]1C(=O)N1CCC[C@H]1C(=O)N[C@@H](CO)C(N)=O [Example 3]
[1]; [6]
  EC50: 0.0971 nM
[1]; [7]
  Emax: 80%
[1]; HEK293, percent of maximal response to GIP(1-42)NH2, 37° C., 0.1% bovine casein, arithmetic mean, read-out: hGIPR Emax, % ± SEM
  Emax: 95.9 ± 2.95%
[1]; cAMP, incubated at 37° C., 0.1% bovine casein (no human serum albumin), read-out: hGIPR EC50, nM (SEM, n)
  EC50: 0.0133 nM
[2]; [8]
  EC50: > 9950 nM
[2]; [9]
  EC50: > 9950 nM
[3]; [10]
  Ki: 0.0629 nM
[4]; [11]
  Ki: 0.471 nM
[5]; [12]
  EC50: 1.05 nM
[5]; [13]
  EC50: 0.223 nM

## CC[C@H](C)[C@H](NC(=O)[C@H](CC(C)C)NC(=O)[C@](C)(Cc1ccc(O)cc1)NC(=O)[C@@H](CCC(=O)O)NC(=O)[C@@H](NC(=O)[C@H](Cc1ccccc1)NC(=O)[C@H](CCC(=O)O)NC(=O)C(C)(C)NC(=O)[C@H](CCC(N)=O)NC(=O)[C@H](C)NC(=O)[C@H](CCCCNC(=O)COCCOCCNC(=O)COCCOCCNC(=O)CC[C@H](NC(=O)CCCc1ccc(C(C)(C)C)cc1)C(=O)O)NC(=O)[C@H](CCCN)NC(=O)[C@H](CC(=O)O)NC(=O)[C@H](CC(C)C)NC(=O)[C@](C)(CC(C)C)NC(=O)[C@@H](NC(=O)[C@H](CO)NC(=O)[C@H](Cc1ccncc1)NC(=O)[C@H](CC(=O)O)NC(=O)[C@H](CO)NC(=O)[C@@H](NC(=O)[C@](C)(Cc1ccccc1F)NC(=O)[C@@H](NC(=O)CNC(=O)[C@H](CCC(=O)O)NC(=O)C(C)(C)NC(=O)[C@@H](N)Cc1ccc(O)cc1)[C@@H](C)O)[C@@H](C)O)[C@@H](C)CC)[C@@H](C)CC)C(=O)N[C@@H](CCC(=O)O)C(=O)NCC(=O)NCC(=O)N[C@@H](CCCCNC(=O)COCCOCCNC(=O)COCCOCCNC(=O)CC[C@H](NC(=O)CCCc1ccc(C(C)(C)C)cc1)C(=O)O)C(=O)N[C@@H](CO)C(=O)N[C@@H](CO)C(=O)NCC(=O)N[C@@H](C)C(=O)N1CCC[C@H]1C(=O)N1CCC[C@H]1C(=O)N1CCC[C@H]1C(=O)N[C@@H](CO)C(N)=O [Example 4]
[1]; HEK293, read-out: hGIPR Emax, % ± SEM, 0.1% bovine casein and 1.0% human serum albumin, 37° C., percent of maximal response to GIP(1-42)NH2
  Emax: 88.3 ± 2.17%
[1]; HEK293, read-out: hGIPR Emax, % ± SEM, percent of maximal response to GIP(1-42)NH2, 37° C., 0.1% bovine casein, arithmetic mean
  Emax: 92.9 ± 0.381%
[1]; hGIPR EC50, nM (SEM, n), 0.1% bovine casein and 1.0% human serum albumin, 37° C.
  EC50: 0.0296 nM
[2]; hGCGR EC50, nM (SEM, n), 0.1% bovine casein and 1.0% human serum albumin, 37° C.
  EC50: > 9950 nM
[2]; hGCGR EC50, nM (SEM, n), cAMP, incubated at 37° C., 0.1% bovine casein (no human serum albumin)
  EC50: > 9950 nM
[3]
  Ki: 0.0528 nM
[4]
  Ki: 0.413 nM
[5]; hGLP-1R EC50, nM (SEM, n), 0.1% bovine casein and 1.0% human serum albumin, 37° C.
  EC50: 0.584 nM
[5]; hGLP-1R EC50, nM (SEM, n), cAMP, incubated at 37° C., 0.1% bovine casein (no human serum albumin)
  EC50: 0.137 nM

## CCCCCCCCCCCC(=O)N[C@@H](CCC(=O)NCCOCCOCC(=O)NCCOCCOCC(=O)NCCCC[C@H](NC(=O)CNC(=O)CNC(=O)[C@H](CCC(=O)O)NC(=O)[C@@H](NC(=O)[C@H](CC(C)C)NC(=O)[C@](C)(Cc1ccc(O)cc1)NC(=O)[C@@H](CCC(=O)O)NC(=O)[C@@H](NC(=O)[C@H](Cc1ccccc1)NC(=O)[C@H](CCC(=O)O)NC(=O)C(C)(C)NC(=O)[C@H](CCC(N)=O)NC(=O)[C@H](C)NC(=O)[C@H](CCCCNC(=O)COCCOCCNC(=O)COCCOCCNC(=O)CC[C@H](NC(=O)CCCCCCCCCCC)C(=O)O)NC(=O)[C@H](CCCN)NC(=O)[C@H](CC(=O)O)NC(=O)[C@H](CC(C)C)NC(=O)[C@](C)(CC(C)C)NC(=O)[C@@H](NC(=O)[C@H](CO)NC(=O)[C@H](Cc1ccncc1)NC(=O)[C@H](CC(=O)O)NC(=O)[C@H](CO)NC(=O)[C@@H](NC(=O)[C@](C)(Cc1ccccc1F)NC(=O)[C@@H](NC(=O)CNC(=O)[C@H](CCC(=O)O)NC(=O)C(C)(C)NC(=O)[C@@H](N)Cc1ccc(O)cc1)[C@@H](C)O)[C@@H](C)O)[C@@H](C)CC)[C@@H](C)CC)[C@@H](C)CC)C(=O)N[C@@H](CO)C(=O)N[C@@H](CO)C(=O)NCC(=O)N[C@@H](C)C(=O)N1CCC[C@H]1C(=O)N1CCC[C@H]1C(=O)N1CCC[C@H]1C(=O)N[C@@H](CO)C(N)=O)C(=O)O [Example 5]
[1]; [6]
  EC50: 0.372 nM
[1]; [7]
  Emax: 91.2 ± 3.65%
[2]; [8]
  EC50: > 9950 nM
[2]; [9]
  EC50: > 9150 nM
[3]; [10]
  Ki: 0.0309 nM
[4]; [11]
  Ki: 0.154 nM
[5]; [12]
  EC50: 4.78 nM
[5]; [13]
  EC50: 0.057 nM

## CCCCCCCCCCCCCCCC(=O)N[C@@H](CCC(=O)NCCOCCOCC(=O)NCCCC[C@H](NC(=O)CNC(=O)CNC(=O)[C@H](CCC(=O)O)NC(=O)[C@@H](NC(=O)[C@H](CC(C)C)NC(=O)[C@](C)(Cc1ccc(O)cc1)NC(=O)[C@@H](CCC(=O)O)NC(=O)[C@@H](NC(=O)[C@H](Cc1ccccc1)NC(=O)[C@H](CCC(=O)O)NC(=O)C(C)(C)NC(=O)[C@H](CCC(N)=O)NC(=O)[C@H](C)NC(=O)[C@H](CCCCNC(=O)COCCOCCNC(=O)CC[C@H](NC(=O)CCCCCCCCCCCCCCC)C(=O)O)NC(=O)[C@H](CCCN)NC(=O)[C@H](CC(=O)O)NC(=O)[C@H](CC(C)C)NC(=O)[C@](C)(CC(C)C)NC(=O)[C@@H](NC(=O)[C@H](CO)NC(=O)[C@H](Cc1ccncc1)NC(=O)[C@H](CC(=O)O)NC(=O)[C@H](CO)NC(=O)[C@@H](NC(=O)[C@](C)(Cc1ccccc1F)NC(=O)[C@@H](NC(=O)CNC(=O)[C@H](CCC(=O)O)NC(=O)C(C)(C)NC(=O)[C@@H](N)Cc1ccc(O)cc1)[C@@H](C)O)[C@@H](C)O)[C@@H](C)CC)[C@@H](C)CC)[C@@H](C)CC)C(=O)N[C@@H](CO)C(=O)N[C@@H](CO)C(=O)NCC(=O)N[C@@H](C)C(=O)N1CCC[C@H]1C(=O)N1CCC[C@H]1C(=O)N1CCC[C@H]1C(=O)N[C@@H](CO)C(N)=O)C(=O)O [Example 13]
[1]; [6]
  EC50: 1.45 nM
[2]; [8]
  EC50: > 9950 nM
[2]; [9]
  EC50: > 9950 nM
[3]; [10]
  Ki: 0.0575 nM
[4]; [11]
  Ki: 0.691 nM
[5]; [12]
  EC50: 6.79 nM
